# Measurements published in US6703207B2, “Method of screening substances with a glycidyl methacrylate covered styrene-glycidyl methacrylate polymer” (priority 1996, dated 2004).
# Assays:
# [1] = system: protein with a molecular weight of about 30 kDa; experiment: Isolation and competition with H-9-immobilized SG-EGDE particles, HeLa cell nuclear extracts; type: binding; conditions: for elution of the 30 kDa protein from H-9-immobilized particles by free drug: elution with 3 mM drug; for yield of the 30 kDa protein in competition experiment: free drug added simultaneously
# Description: HeLa cell nuclear extracts (NE) were prepared according to the method as described previously (Dignam, J. D., Lebovitz, R. M. and Roeder, R. G. (1983). Accurate transcription by RNA pol II in a soluble extracts from isolated mammalian nucleic. Nucleic Acids Res 11. 1475-1489).
# NF-κB = experiment: Transfection of NF-κB-regulated luciferase plasmid into Jurkat cells; type: cell-based; conditions: luciferase genes regulated by NF-κB
# Text: The functions of NH2-E3330 were compared with those of E3330 with respect to transcriptional activation abilities of NF-κB.
# [2] = system: proteins with a molecular weight of about 60, 38, and 27 kDa; experiment: Isolation and competition with E3330-immobilized SG-EGDE particles, Jurkat nuclear extract; type: binding; conditions: 1M KCl eluate
# Description: From the purification using P.1, there was not observed any specific protein band specifically eluted from E3330-immobilized particles.
# The identification of the specific proteins were conducted by electrophoresis using SDS-PAGE.
# [3] = molecular target: T1, Ref-1 acting on p50/p50 homo-dimer or p65/p50 hetero-dimer (Homo sapiens, UniProt P27695); experiment: Gel-shift assay with recombinant p65 and p50 subunits; type: biochemical
# T1 construct: His6 (pET14b) (N); made in house; p50 and p65: baculovirus expression system
# T1 sequence (P27695 whole entry): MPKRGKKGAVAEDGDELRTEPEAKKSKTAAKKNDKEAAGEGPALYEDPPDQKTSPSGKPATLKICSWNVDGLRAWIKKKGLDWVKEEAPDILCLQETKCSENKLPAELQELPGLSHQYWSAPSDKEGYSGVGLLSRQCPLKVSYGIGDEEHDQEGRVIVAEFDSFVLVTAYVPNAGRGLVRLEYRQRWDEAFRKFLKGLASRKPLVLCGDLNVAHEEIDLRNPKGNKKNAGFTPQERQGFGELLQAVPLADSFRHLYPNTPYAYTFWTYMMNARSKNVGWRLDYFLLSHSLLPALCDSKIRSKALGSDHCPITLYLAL
# [4] = molecular target: T2, Ref-1 amino acid sequence 72 a.a. to 88 a.a. (Homo sapiens, UniProt P27695); experiment: Binding of Ref-1 fragment 72 a.a. to 88 a.a. to E3330-immobilized particles
# T2 construct: made in house
# Ref-1 [5] = molecular target: T3, Ref-1 (Homo sapiens, UniProt P27695); experiment: Far Western method using 14C-labeled E3330; type: binding
# T3 construct: His6 (pET14b) (N); made in house
# T3 sequence (P27695 whole entry): as above
# Ref-1 [6] = molecular target: T3, Ref-1; experiment: AP nuclease activity of recombinant Ref-1 on AP plasmid DNA; type: biochemical; conditions: supercoiled AP plasmid DNA to open circular
# Description: First, concerning AP nuclease activity, the plasmid pBluescript SK+DNA (50 μg) was treated with 50 mM sodium citrate (pH 3.5) at 60° C. for 15 minutes, followed by dialysis in 50 mM Tris-HCl (pH 7.4) at 4° C. for about 24 hours.
# Solubility in water = type: physicochemical
# [7] = molecular target: T4, Ref-1 redox activity on NF-κB (Homo sapiens, UniProt P27695); experiment: Gel-shift assay of NF-κB DNA binding, NF-κB partially purified from Jurkat cells; type: biochemical
# T4 construct: His6 (pET14b) (N); made in house; NF-κB: partially purified from Jurkat cells
# T4 sequence (P27695 whole entry): as above
# Description: Prior to the conduction of the investigation, there are some considerations. […] There are two cases; one is an oxidized condition where these cystine residues are bound to each other through an S-S bond; and the other one is a reduced condition where they are individually existing with an SH-group. Therefore, NF-κB was treated with dithiothreitol (DTT) that is known as a reductant to make the state of NF-κB to be reduction.
# [8] = molecular target: protein with a molecular weight of about 38 kDa (Ref-1) (Homo sapiens, UniProt P27695); experiment: Isolation and competitive binding-inhibition with E3330-immobilized SG-EGDE particles, Jurkat cytoplasmic P.5 fraction
# protein with a molecular weight of about 38 kDa (Ref-1), sequence (P27695 whole entry): as above
# [9] = molecular target: recombinant protein of Ref-1 (Homo sapiens, UniProt P27695); experiment: Binding of recombinant Ref-1 to E3330-immobilized particles
# recombinant protein of Ref-1, sequence (P27695 whole entry): as above
# [10] = system: protein with a molecular weight of about 110 kDa; experiment: Isolation and competition with DQ2511-immobilized particles, HeLa cytoplasmic fraction; type: binding; conditions: 1.0 M KCl eluate
# Description: To these washed DQ2511-not-immobilized SG-EGDE particles and DQ2511-immobilized-SG-EGDE particles, 1 ml of the diluted cytoplasmic fraction was added and mixed. […] The wash solution and eluate solutions were stored at −80° C.
# [11] = system: protein with a molecular weight of about 170 kDa; experiment: Isolation and competition with DQ2511-immobilized particles, lysate of rat DRG cell; type: binding; conditions: concentrated crude lysate of rat DRG cell
# Description: Microspheres and the concentrated crude lysate of rat DRG cell were mixed and centrifuged to separate substances binding to DQ2511 which was immobilized on particles from the mixture. The procedures of binding, washing and detection of protein were performed as described above. […] In the above procedure, about 10 ng of 170 kDa DQ2511-binding protein was obtained from 1 mg of the DQ2511-immobilized SG-EGDE particles.
structure (smiles),measurement,setting,value
CNCCNS(=O)(=O)c1cccc2cnccc12 [H-8],elution of the 30 kDa protein from H-9-immobilized particles by free drug,[1],same protein band was obtained
same,yield of the 30 kDa protein in competition experiment,[1],lower yield
CCCCCCCCC/C(=C\C1=C(C)C(=O)C(OC)=C(OC)C1=O)C(=O)O [E3330],transcriptional activation abilities of NF-κB,NF-κB,reduced
same,protein bands not observed in reference control (specific binding),[2],specifically binding to E3330
same,enhancement of DNA-binding ability of p50/p50 homo-dimer or p65/p50 hetero-dimer by Ref-1,[3],reduced
same,binding of recombinant protein possessing only 72 a.a. to 88 a.a. of Ref-1,[4],confirmation of its binding ability against E3330
same,binding in Far Western method,Ref-1 [5],bound to Ref-1
same,AP nuclease activity of Ref-1,Ref-1 [6],not inhibited
same,solubility in water,Solubility in water,insoluble in water
same,enhancement of the DNA-binding activity of NF-κB by Ref-1,[7],reduced
same,increase in the DNA-binding activity of NF-κB by DTT,[7],did not inhibit
same,protein band not observed in reference control (specific binding),"[8]; P.5 fraction, 1 M KCl eluate, SDS-PAGE silver staining",specifically binding to E3330
same,yield of the about 38 kDa protein in competitive binding-inhibitory experiment,[8]; free E3330 at the same moles as immobilized NH2-E3330,lowered
same,binding of recombinant Ref-1 to immobilized drug,[9],specifically bound to E3330
CNC(=O)c1cccc(NCC(=O)NCCc2ccc(OC)c(OC)c2)c1 [DQ2511],protein band not observed in reference control (specific binding),[10],specifically binding to DQ2511
same,protein obtained from immobilized particles (binding ability),[11],possessing DQ2511-binding ability
NCCNS(=O)(=O)c1cccc2cnccc12 [H-9],protein band not observed in reference control (specific binding),"[1]; HeLa nuclear extract, SDS-PAGE silver staining",specifically binding to H-9
same,elution of the 30 kDa protein from H-9-immobilized particles by free drug,[1],same protein band was obtained
same,yield of the 30 kDa protein in competition experiment,[1],lower yield
